From BindingDB's records for doi:10.1111/cbdd.12801 (2016)

What was measured:
Conditions in all cases: pH 7.4; 25 °C
Adenosine receptor A3 = molecular target: T1, Adenosine receptor A3 (Homo sapiens, UniProt P0DMS8); experiment: A3 Adenosine Receptor Binding Assay
T1 sequence (P0DMS8 whole entry): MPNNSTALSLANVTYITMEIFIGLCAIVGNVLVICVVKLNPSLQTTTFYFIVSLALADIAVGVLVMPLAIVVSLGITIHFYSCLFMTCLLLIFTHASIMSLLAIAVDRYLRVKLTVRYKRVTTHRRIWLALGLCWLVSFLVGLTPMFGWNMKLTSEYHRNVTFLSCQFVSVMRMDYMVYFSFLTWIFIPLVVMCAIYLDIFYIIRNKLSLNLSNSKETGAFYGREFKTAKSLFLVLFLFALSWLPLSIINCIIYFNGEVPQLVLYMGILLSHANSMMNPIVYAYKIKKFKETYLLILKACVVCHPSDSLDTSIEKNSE
Procedure: (§1) Aliquots of cell membranes (90 ug) were incubated at 25 °C for 180 min in 500 uL of binding buffer (50 mM Tris-HCl, 5 mM MgCl2, 1 mM EDTA, 2 units/mL ADA, pH 7.4) in the presence of 30 nm [3H]NECA and six different concentrations of the tested compounds. Non-specific binding was determined in the presence of 100 uM R-PIA.

Adenosine receptor A1 = molecular target: T2, Adenosine receptor A1 (Homo sapiens, UniProt P30542); experiment: A1 Adenosine Receptor Binding Assay
T2 sequence (P30542 whole entry): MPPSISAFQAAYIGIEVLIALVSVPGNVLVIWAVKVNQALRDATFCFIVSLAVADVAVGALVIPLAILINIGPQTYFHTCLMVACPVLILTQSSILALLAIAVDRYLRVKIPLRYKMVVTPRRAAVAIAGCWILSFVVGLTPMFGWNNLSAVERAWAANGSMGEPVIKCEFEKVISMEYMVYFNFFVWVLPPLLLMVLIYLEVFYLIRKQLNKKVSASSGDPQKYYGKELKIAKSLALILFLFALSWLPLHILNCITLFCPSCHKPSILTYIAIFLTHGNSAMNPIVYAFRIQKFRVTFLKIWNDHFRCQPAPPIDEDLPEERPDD
Procedure: Aliquots of cell membranes (30 ug proteins) were incubated at 25 °C for 180 min in 500 uL of binding buffer (50 mM Tris-HCl, 2 mM MgCl2, 2 units/mL ADA, pH 7.4) containing [3H]DPCPX (3 nM) and six different concentrations of the tested compounds. Non-specific binding was determined in the presence of 50 µM R-PIA. The dissociation constant (Kd) of [3H]DPCPX in human A1 AR CHO cell membranes was 3 nM.

Adenosine receptor A2a = Adenosine receptor A2a (Homo sapiens, UniProt P29274); experiment: A2A Adenosine Receptor Binding Assay
Procedure: as §1, with “(30” for “(90”, “90” for “180”, “2 mm” for “5 mM”, “MgCl2,” for “MgCl2, 1 mM EDTA,”, “nM of” for “nm”

Chain of Adenosine receptor A2a (P29274 whole entry): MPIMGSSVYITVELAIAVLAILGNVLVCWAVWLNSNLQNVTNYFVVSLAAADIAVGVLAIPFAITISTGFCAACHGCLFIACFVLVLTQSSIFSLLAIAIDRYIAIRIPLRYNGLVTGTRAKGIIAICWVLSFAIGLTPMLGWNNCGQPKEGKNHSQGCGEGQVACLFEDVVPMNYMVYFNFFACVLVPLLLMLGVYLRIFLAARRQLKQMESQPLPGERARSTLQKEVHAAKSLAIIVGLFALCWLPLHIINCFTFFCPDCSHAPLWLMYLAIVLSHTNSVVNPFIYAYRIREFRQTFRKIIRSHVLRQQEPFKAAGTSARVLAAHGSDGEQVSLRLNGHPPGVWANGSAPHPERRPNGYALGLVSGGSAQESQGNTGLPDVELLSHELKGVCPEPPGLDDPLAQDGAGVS

Structure (SMILES)	Ki (Adenosine receptor A3) [nM]	EC50 (Adenosine receptor A1) [nM]	Ki (Adenosine receptor A1) [nM]	Ki (Adenosine receptor A2a) [nM]
CCCOc1cc(N)nc(SCc2ccccc2)n1 [4-amino-6-alkyloxy-2-benzylthiopyrimidines (4)]	> 10000	490	1240	> 10000
Nc1cc(OCc2ccccc2)nc(SCc2ccccc2)n1 [4-amino-6-alkyloxy-2-benzylthiopyrimidines (6)]	> 10000	–	1200	> 10000
CC(C)COc1cc(N)nc(SCc2ccccc2)n1 [4-amino-6-alkyloxy-2-benzylthiopyrimidines (5)]	> 10000	870	1940	> 10000
